{
  "source": "patent US8071540B2",
  "about": "“Virus derived antimicrobial peptides” (priority 2007, dated 2011)",
  "test_system": "Burkholderia cepacia",
  "assay_type": "cell-based",
  "conditions": "25 μM peptide, organisms surviving, FIG. 8",
  "note": "Where no end group is shown, it is not given here.",
  "data": [
    {"sequence": "RWIRVVQRWCRAIRHIWRRIRQGLRRWLRVV [WLSA-5, RWIRVVQRWCRAIRHIWRRIRQGLRRWLRVV]", "values": [
      {"measurement": "killing of B. cepacia genomovars compared with LL37", "value": "equal to or better than LL-37 at killing all bacterial strains"}
    ]}
  ]
}
